For data set [1] the following is noted: mean ± SD; for AUC0-10 hr: baseline-corrected. The protocol: Subjects participated in a randomized, double-blind, single-dose, 4-way crossover study with a minimum of 1 week elapsing between trials. The 4 treatment groups were:
Subjects fasted overnight except for water. […] After 1 hour they were administered the study medication. Additional blood specimens were obtained immediately prior to the study medication and at 0.5, 1, 1.5, 2, 3, 4, 5, 6, 8, and 10 hours after taking the study medication. Subjects received a standardized lunch after the 6-hour blood draw. All blood specimens were drawn in duplicate (for plasma and whole blood assays) in 3 mL lavender-top vacutainers® containing K2EDTA. They were immediately placed in an ice bath and protected from the light. One vacutainer® of each pair was centrifuged at 3000 RPM for 20 min at 4°C to separate the plasma. The plasma sample and whole blood sample were then frozen at -70°C.
Thiamine tablets each containing 100 mg of thiamine hydrochloride were used (Amneal Pharmaceuticals). These were placed intact into opaque capsules. Identical capsules containing sucrose tablets were used as placebo such that the same number of capsules were used for each trial.
Quest Diagnostics analyzed all specimens for total thiamine using HPLC [4]. At Quest Diagnostics, plasma was deproteinized and then incubated with acid phosphatase to convert thiamine phosphate esters to free thiamine. The free thiamine was then oxidized to thiochrome by the addition of alkaline potassium ferricyanide. Depending on the age of the column and the temperature of the room, thiochrome retention time varied from 2.5 to 3.0 min. The mixture was injected to a Supelco (Bellefonte, PA, USA) high-performance liquid chromatographic column (7.5 cm^3 4.6 mm, particle size […]) connected to a high-performance liquid chromatographic system using a Hitachi (Pleasant, CA, USA) pump, autosampler, and fluorescent detector (excitation wavelength 365 nm, emission wavelength 440 nm). The mobile phase was 75 mmol/L of potassium phosphate at pH 7.5 with 25% methanol. The flow rate was set at 1.0 mL/min. Through this process, the thiochrome was then separated from other interfering substances and then measured fluorometrically. The amount of total thiamine in an unknown sample is proportional to the amount of thiochrome formed. The limit of quantification is 7 nmol/L. The assay range is 7 to 450 nmol/L. Samples with values above this range were diluted. The coefficient of variation for both the plasma and whole blood thiamine assays was calculated from the data collected in this study.
The thiamine levels were corrected by subtracting the baseline value. The baseline value was calculated as the average of the -1-hour and 0-hour values. Net systemic exposure to thiamine in each subject in each trial was quantitated using the area under the whole blood or plasma concentration curve from time zero through 10 hours after dosage (AUC0-10 hr). This was calculated using the cubic splines method. The overall effect of treatment condition (thiamine dose) on AUC0-10 hr in blood and plasma was tested using analysis of variance (ANOVA) for repeated measures. This was followed by the Student-Newman-Keuls procedure, nonparametric form, for evaluating all pairwise comparisons of the mean AUC0-10 hr values for the dosage groups. The peak thiamine concentration (Cmax) and the time to peak thiamine concentration (Tmax) were also calculated. Finally, half-life (t1\2) values were calculated where the terminal phase appeared log-linear.

The conditions of data set [2]: cited from earlier work.
For data set [3] the following is noted: single oral doses 100, 500, 1500 mg, healthy subjects; study not designed to detect adverse events. The source says:
Subjects participated in a randomized, double-blind, single-dose, 4-way crossover study with a minimum of 1 week elapsing between trials.

The mark [4] stands for this setting: plasma, 100 mg oral single dose.
[5] abbreviates: plasma, 500 mg oral single dose.
The mark [6] stands for this setting: plasma, 1500 mg oral single dose.
Setting [7] is: whole blood, 100 mg oral single dose.
The mark [8] stands for this setting: whole blood, 500 mg oral single dose.
Setting [9] is: whole blood, 1500 mg oral single dose.

Structures can show the parent of a compound that is named as a salt. Where two headings read alike, the source gives them in different places.

As usually defined, the Cmax is the highest concentration seen after dosing. With `Cc1ncc(C[n+]2csc(CCO)c2C)c(N)n1` [thiamine hydrochloride], the AUC0-10 hr turned out to be 0.177 ± 0.062 µM·h in data set [1] (setting [4]); 0.612 ± 0.257 µM·h in data set [1] (setting [5]); 2.059 ± 1.415 µM·h in data set [1] (setting [6]); 0.214 ± 0.069 µM·h in data set [1] (setting [7]); 0.623 ± 0.178 µM·h in data set [1] (setting [8]); 2.046 ± 1.222 µM·h in data set [1] (setting [9]). Moreover, the highest concentration (Cmax) in data set [1] (setting [4]) turned out to be 39 ± 13 nM; in data set [1] (setting [5]) it was 113 ± 42 nM; in data set [1] (setting [6]) it was 397 ± 250 nM; in data set [1] (setting [7]), 40 ± 11 nM; in data set [1] (setting [8]), 95 ± 27 nM; in data set [1] (setting [9]), 385 ± 188 nM. Also, the adverse effects result in data set [2] (1000 mg oral three times a day for 2 to 12 months, Alzheimer's disease) is “without any reports of adverse effects”. Also, the side effects result in data set [2] (titrated up to 8000 mg per day over 1 year, in 2 subjects at 7000 and 7500 mg per day) is “nausea and indigestion”; in data set [3] it was “no side effects were reported”.

Values taken from publication PMC3293077, “Pharmacokinetics of high-dose oral thiamine hydrochloride in healthy subjects” (BMC Clinical Pharmacology, 2012).
